Like-named read-outs stand apart in the source and are kept apart here.
How the values were obtained:
[1] = tested on: pregnenolone level in NCI-H295R cells; experiment: cells; format: cell-based; conditions: Homo sapiens, 72 h; for IC50: read-out: Pregnenolone level in H295R (Elisa) IC50 nM; for inhibition at 0.1 µM: read-out: Pregnenolone level in H295R (Elisa) inh.% 100 nM; for inhibition at 1 µM: read-out: Pregnenolone level in H295R (Elisa) inh.% 1000 nM
Method: 2. The purpose of the experimental study was intended to detect the pregnenolone level in the NCI-H295R cells by adopting the Enzyme linked immunosorbent assay (ELISA), so as to evaluate the inhibitory effects of the compounds on the pregnenolone level in the NCI-H295R cells.
The H295R cells were purchased from ATCC (CRL-2128), the cell complete medium contained DMEM: F12+ 10% FBS +0.00625 mg/ml insulin+0.00625 mg/mL transferrin+6.25 ng/mL selenium+1.25 mg/mL BSA+0.00535 mg/mL linoleic acid, and the cells were cultured in a 37°C, 5% CO2 incubator. The cells in the exponential growth phase were collected, and cultured in a cytokine-free medium (phenol red 1640-free +1% PS+10% css FBS+1.25 mg/mL BSA +0.00625 mg/mL insulin+0.00625 mg/mL transferrin+6.25 ng/mL selenium+0.00535 mg/mL linoleic acid) for three days. The cells in the exponential growth phase were collected on the third day. The cell suspension was adjusted with a cytokine-free medium to a corresponding concentration and plated at 60000 cells/well, with the volume being 90 µL/well. Subsequently, 10 µL of the compounds at different concentrations was added and the plate was incubated in a CO2 incubator for three days. After the incubation was completed, the cell culture supernatant was collected and centrifuged at 2°C-8°C at 800×g for 10 min. The resulting supernatant was collected. Determination was carried out according to the operation instructions for pregnenolone Elisa kit (Antibodies-A73791), and the OD450 signal was read.
2.1 Standard curve plotting. The standard concentration was taken as the abscissa and the OD450 value as the ordinate, the coordinate points of various standards were connected with a smooth line and a curve was fitted according to the four parameter logistic (4-PL) method.
2.2 Sample quantification: The corresponding concentration (CONC) of testosterone/pregnenolone in the sample was calculated using the absorbance value of the sample and the standard curve. According to formula (1), the inhibition rate of the compound at various concentrations was calculated, and S-shaped concentration curves were plotted and the IC50 values (i.e., concentration of the compound at which the inhibition rate was 50%) were calculated using a three parameter non-linear regression model in Graphpad Prim 8.0 software. CONC cpd was the concentration of the treated group, and CONC ctrl was the average concentration value of the solvent control group. Inhibition rate% = 100%−CONCcpd /CONCctrl × 100% [formula] Table 3 Inhibitory effects of compounds on pregnenolone level in NCI-H295R cells

[2] = tested on: testosterone level in NCI-H295R cells; experiment: cells; format: cell-based; conditions: Homo sapiens, NCI-H295R, 72 h; for IC50: read-out: Testosterone level in H295R (Elisa) IC50 nM
Method: The purpose of the experimental study was intended to detect the testosterone level in the NCI-H295R cells by adopting the Enzyme linked immunosorbent assay (ELISA), so as to evaluate the inhibitory effects of the compounds on the testosterone level in the NCI-H295R cells.
The H295R cells were purchased from ATCC, the cell complete medium contained DMEM: F12+ 10% FBS +0.00625 mg/ml insulin +0.00625 mg/ml transferrin+6.25 ng/ml selenium +1.25 mg/ml BSA+0.00535 mg/ml linoleic acid, and the cells were cultured in a 37°C, 5% CO2 incubator. The cells in the exponential growth phase were collected, and cultured in a cytokine-free medium (phenol red 1640-free +1% PS+10% css FBS+1.25 mg/ml BSA +0.00625 mg/ml insulin + 0.00625 mg/ml transferrin+6.25 ng/ml selenium+0.00535 mg/ml linoleic acid) for three days. The cells in the exponential growth phase were collected on the third day. The cell suspension was adjusted with a cytokine-free medium to a corresponding concentration and plated at 60000 cells/well, with the volume being 90 µL/well. Subsequently, 10 µL of the compounds at different concentrations was added and the plate was incubated in a CO2 incubator for three days. After the incubation was completed, according to the operation instructions for testosterone Elisa kit (Beyotime, PT872), 50 µL of the cell culture supernatant was collected from each well and centrifuged at 500 g for 5 min at room temperature and then the resulting supernatant was collected. The samples were added to the corresponding wells at 25 µl/well, and then formulated horseradish peroxidase labelled testosterone was added at 75 µl/well. The mixture was fully mixed for 10 seconds. The reaction wells were sealed with a plate-sealing film (white) and the mixture was incubated at room temperature in the dark for 120 min. The plate was washed three times with a volume of 300 µl per well, and then placed onto thick absorbent paper and dried. Chromogenic reagent TMB solution was added at 100 µl/well. The reaction wells were sealed with a plate-sealing film (white) and the mixture was incubated at room temperature in the dark for 15-20 min. Subsequently, a termination solution was added at 50 µl/well, and after the mixture was fully mixed, the absorbance value OD450 was immediately measured. The absorbance readings were processed using Graphpad Prim 8.0 software and S-shaped concentration curves were plotted and the IC50 values were calculated using a four-parameter non-linear regression model.

[3] = Pharmacokinetic test in rats; format: in vivo; conditions: rat, male SD rats, plasma; for Vd: read-out: Vdss
Method: 3.1 Experimental animals: Male SD rats (about 220 g, 6-8 weeks old, 6 rats/compound) were purchased from Chengdu Dossy Experimental Animals Co., Ltd.
3.2 Experimental design: On the day of the experiment, the SD rats were randomly grouped by body weight. […] Table 4 Administration information
Before and after the administration, 0.1 ml of blood was taken from the orbit of the animals under isoflurane anaesthesia and placed in an EDTAK2 centrifuge tube. The blood was centrifuged at 5000 rpm and 4°C for 10 min to collect plasma. […] Before analysis and detection, all samples were stored at -80°C. Table 5 Pharmacokinetic parameters of test compounds in plasma of rats

[4] = Pharmacokinetic test in mice; format: in vivo; conditions: mouse, male ICR mice, plasma; for Vd: read-out: Vdss
Method: 4.1. Experimental animals: Male ICR mice, 20-25 g, 6 mice/compound, were purchased from Chengdu Dossy Experimental Animals Co., Ltd.
4.2 Experimental design: on the day of the experiment, the ICR mice were randomly grouped according to their body weights. […] Table 6 Administration information
Before and after administration, 0.06 mL of blood was taken from the orbit under isoflurane anaesthesia and placed in an EDTAK2 centrifuge tube. The tube was centrifuged at 5000 rpm at 4°C for 10 min, and plasma was collected. […] Before analysis and detection, all samples were stored at -80°C, and the samples were quantitatively analysed by LC-MS/MS.

[5] = read-out: Testosterone level in H295R (Elisa) inh.% 100 nM
[6] = read-out: Testosterone level in H295R (Elisa) inh.% 1000 nM
[7] = po, intragastric administration (10 mg/kg)
[8] = intravenous administration (2.5 mg/kg)

| SMILES | IC50 [1] [nM] | IC50 [2] [nM] | inhibition at 0.1 µM [2, 5] [%] | inhibition at 1 µM [2, 6] [%] | AUC(0-t) [3, 7] [ng·h/mL] | half-life [3, 7] [h] | AUC(0-t) [3, 8] [ng·h/mL] | clearance [3, 8] [mL/min/kg] | half-life [3, 8] [h] | Vd [3, 8] [L/kg] | AUC(0-t) [4, 7] [ng·h/mL] | half-life [4, 7] [h] | AUC(0-t) [4, 8] [ng·h/mL] | clearance [4, 8] [mL/min/kg] | half-life [4, 8] [h] | Vd [4, 8] [L/kg] | inhibition at 0.1 µM [1] [%] | inhibition at 1 µM [1] [%] | inhibition at 0.1 µM ([2]; read-out: Testosterone level in H295R (Elisa) inh.% 100 nM, 100 nM compound, NCI-H295R cells, three days incubation) [%] | inhibition at 1 µM ([2]; read-out: Testosterone level in H295R (Elisa) inh.% 1000 nM, 1000 nM compound, NCI-H295R cells, three days incubation) [%] |
| --- | --- | --- | --- | --- | --- | --- | --- | --- | --- | --- | --- | --- | --- | --- | --- | --- | --- | --- | --- | --- |
| [2H]C([2H])([2H])n1cc(C(=O)N[C@H]2CC[C@H](/C=C/c3coc(CN4Cc5ccc(C(F)(F)F)cc5C4)cc3=O)CC2)cn1 [Compound 81] | 146 | 102 | 63 | 83 | 40500 | 4.29 | 12900 | 3.22 | 3.18 | 0.704 | 68500 | 5.38 | 22600 | 1.69 | 6.99 | 0.86 |  |  |  |  |
| CS(=O)(=O)N1CC(OC(=O)N2CCC(COc3coc(CN4Cc5ccc(C(F)(F)F)cc5C4)cc3=O)CC2)C1 [Compound 17] | 773 |  |  |  | 5240 | 2.72 | 1680 | 24.4 | 1.59 | 2.53 | 17800 | 2.42 | 4790 | 8.73 | 2.96 | 1.81 | 64.9 | 75.2 | 91.6 | 93.6 |
| [2H]C([2H])([2H])n1cc(C(=O)N[C@H]2CC[C@H](CCc3coc(CN4Cc5ccc(C(F)(F)F)cc5C4)cc3=O)CC2)cn1 [Compound 118] | 71 | 36 | 70 | 83 | 11400 | 4.41 | 5200 | 8.18 | 1.58 | 0.755 | 28000 | 3.45 | 7980 | 5.22 | 2.78 | 0.966 |  |  |  |  |
| O=C(N[C@H]1CC[C@H](/C=C/c2coc(CN3Cc4ccc(C(F)(F)F)cc4C3)cc2=O)CC1)[C@@H]1CC1(F)F [Compound 89] |  |  | 75 | 87 |  |  |  |  |  |  | 52500 | 8.11 | 8460 | 4.9 | 5.1 | 1.63 | 41.6 | 64.9 |  |  |
| O=C(N[C@H]1CC[C@H](/C=C/c2coc(CN3Cc4ccc(C(F)(F)F)cc4C3)cc2=O)CC1)C1CC(F)(F)C1 [Compound 88] | 94 | 59 | 76 | 86 |  |  |  |  |  |  | 23600 | 4.48 | 8550 | 4.82 | 4.49 | 1.54 | 41.6 | 64.5 |  |  |
| O=C(N[C@H]1CC[C@H](/C=C/c2coc(CN3Cc4ccc(C(F)(F)F)cc4C3)cc2=O)CC1)C1CC1 [Compound 61] | 370 | 162 | 71 | 79 | 17400 | 3.03 | 5590 | 7.49 | 2.58 | 1.42 | 32100 | 3.47 | 6080 | 6.8 | 3.73 | 1.75 |  |  |  |  |

— patent EP4692079A1, “CYP11A1 INHIBITOR AND USE THEREOF” (priority 2023, dated 2024)
